Patent US4861788A, “Antibacterial 1-normon-2-yl-heterocyclic compounds” (Beecham Group plc, priority 1983, dated 1989)
Converted amounts (≈) assume the structure as drawn.

How the values were obtained:
M. hyopneumoniae JF 435 = experiment: MIC against Mycoplasma in vitro (Friis broth with agarose); type: cell-based; settings: Mesomycoplasma hyopneumoniae, JF435, 144 h
M. hyopneumoniae Str. 11 = experiment: as above; type: cell-based; settings: Mesomycoplasma hyopneumoniae, STR.11, 144 h
[1] = tested on: M. hyopneumoniae J2206/183^b; experiment: as above; type: cell-based; settings: Mesomycoplasma hyopneumoniae, 144 h
M. hyopneumoniae UCD 1 = experiment: as above; type: cell-based; settings: Mesomycoplasma hyopneumoniae, UCD1, 144 h
M. hyopneumoniae TAM 6N = experiment: as above; type: cell-based; settings: Mesomycoplasma hyopneumoniae, TAM6N, 144 h
M. hyorhinis ATCC 23234 = experiment: as above; type: cell-based; settings: Mesomycoplasma hyorhinis, ATCC23234, 144 h
M. gallisepticum S6 = experiment: as above; type: cell-based; settings: Mycoplasmoides gallisepticum, 144 h; M. gallisepticum S6; 6 days at 37° C; read-out: MIC
M. pneumoniae ATCC 15492 = experiment: as above; type: cell-based; settings: Mycoplasmoides pneumoniae, ATCC15492, 144 h; M. pneumoniae ATCC 15492; 6 days at 37° C; read-out: MIC
Bacillus subtilis 6633 = experiment: MIC against human bacteria in vitro (nutrient agar, chocolated horse blood); type: cell-based; settings: human; Bacillus subtilis 6633; 18 hours at 37° C; read-out: MIC
Procedure: (§1) The activity of the normonyl derivaties of the Examples against various bacteria which are important in diseases of humans, was assayed in vitro using serial dilutions in nurient agar with 5% chocolated horse blood.

[2] = tested on: Corynebacterium xerosis 9755; experiment: as above; type: cell-based; settings: human; Corynebacterium xerosis 9755; 18 hours at 37° C; read-out: MIC
Procedure: as §1

E. coli ESS = experiment: as above; type: cell-based; settings: Escherichia coli; human; E. coli ESS; 18 hours at 37° C; read-out: MIC
Procedure: as §1

E. coli NCTC 10418 = experiment: as above; type: cell-based; settings: Escherichia coli, NCTC10418; human; E. coli NCTC 10418; 18 hours at 37° C; read-out: MIC
Procedure: as §1

[3] = tested on: Haemophilus influenzae Wy21; experiment: as above; type: cell-based; settings: human; Haemophilus influenzae Wy21; 18 hours at 37° C; read-out: MIC
Procedure: as §1

K. aerogenes A = experiment: as above; type: cell-based; settings: Klebsiella aerogenes; human; K. aerogenes A; 18 hours at 37° C; read-out: MIC
Procedure: as §1

P. mirabilis 889 = experiment: as above; type: cell-based; settings: Proteus mirabilis; human; P. mirabilis 889; 18 hours at 37° C; read-out: MIC
Procedure: as §1

[4] = tested on: Pasteurella multocida 1633; experiment: as above; type: cell-based; settings: human; Pasteurella multocida 1633; 18 hours at 37° C; read-out: MIC
Procedure: as §1

[5] = tested on: Ps. aeruginosa NCTC 10662; experiment: as above; type: cell-based; settings: Pseudomonas aeruginosa, NCTC10662; human; Ps. aeruginosa NCTC 10662; 18 hours at 37° C; read-out: MIC
Procedure: as §1

Sarcina lutea 8340 = experiment: as above; type: cell-based; settings: Micrococcus luteus; human; Sarcina lutea 8340; 18 hours at 37° C; read-out: MIC
Procedure: as §1

Staph. aureus Oxford [6] = experiment: as above; type: cell-based; settings: Staphylococcus aureus; human; Staph. aureus Oxford; 18 hours at 37° C; read-out: MIC
Procedure: as §1

Staph. aureus Russell = experiment: as above; type: cell-based; settings: Staphylococcus aureus; human; Staph. aureus Russell; 18 hours at 37° C; read-out: MIC
Procedure: as §1

Staph. aureus W2827 = experiment: as above; type: cell-based; settings: Staphylococcus aureus; human; Staph. aureus W2827; 18 hours at 37° C; read-out: MIC
Procedure: as §1

Strep. agalactiae 2788-B = experiment: as above; type: cell-based; settings: Streptococcus agalactiae; human; Strep. agalactiae 2788-B; 18 hours at 37° C; read-out: MIC
Procedure: as §1

Strep. faecalis I = experiment: as above; type: cell-based; settings: Enterococcus faecalis; human; Strep. faecalis I; 18 hours at 37° C; read-out: MIC
Procedure: as §1

[7] = tested on: Strep. pyogenes R80/421-A; experiment: as above; type: cell-based; settings: Streptococcus pyogenes; human; Strep. pyogenes R80/421-A; 18 hours at 37° C; read-out: MIC
Procedure: as §1

Strep. spp. 64/848-C = experiment: as above; type: cell-based; settings: human; Strep. spp. 64/848-C; 18 hours at 37° C; read-out: MIC
Procedure: as §1

S. typhimurium S18 = experiment: MIC against veterinary bacteria in vitro (Diagnostic Sensitivity Test Agar); settings: Salmonella enterica, 18 h
Procedure: (§2) The activity of the normonyl derivatives of the Examples against various veterinarily important bacteria, was assayed in vitro using two-fold serial dilutions in Diagnostic Sensitivity Test Agar inoculated with 10^4 organisms.

Past. haemolytica PA5 = experiment: as above; settings: Mannheimia haemolytica, PA5, 18 h
Procedure: as §2

[8] = tested on: Corynebacterium pyogenes CY1; experiment: as above; settings: CY1, 18 h
Procedure: as §2

[9] = tested on: Staph. aureus B4 (pen. resistant); experiment: as above; settings: Staphylococcus aureus, 18 h
Procedure: as §2

[10] = tested on: Staph. aureus 152 (pen. sens); experiment: as above; settings: Staphylococcus aureus, 18 h
Procedure: as §2

Staph. aureus Oxford [11] = experiment: as above; settings: Staphylococcus aureus, 18 h
Procedure: as §2

[12] = tested on: Strep. suis (group D) SPS11; experiment: as above; settings: Streptococcus suis, 18 h
Procedure: as §2

Strep. dysgalactiae SPD1 = experiment: as above; settings: Streptococcus dysgalactiae, SPD1, 18 h
Procedure: as §2

## CC(=Cc1nnc(-c2cccs2)o1)CC1OCC(CC2OC2C(C)C(C)O)C(O)C1O (stereo not drawn) [Example 6, 2-(1-Normon-2-yl)-5-(2-thienyl)-1,3,4-oxadiazole A]
M. hyopneumoniae JF 435
  MIC: 5 µg/mL (≈ 11.1 µM)
M. hyopneumoniae Str. 11
  MIC: 2.5 µg/mL (≈ 5.55 µM)
[1]
  MIC: 5 µg/mL (≈ 11.1 µM)
M. hyopneumoniae UCD 1
  MIC: 5 µg/mL (≈ 11.1 µM)
M. hyopneumoniae TAM 6N
  MIC: 5 µg/mL (≈ 11.1 µM)
M. hyorhinis ATCC 23234
  MIC: 2.5 µg/mL (≈ 5.55 µM)
M. gallisepticum S6
  MIC: > 10 µg/mL
M. pneumoniae ATCC 15492
  MIC: > 10 µg/mL
Bacillus subtilis 6633
  MIC: 4 µg/mL (≈ 8.88 µM)
[2]
  MIC: 128 µg/mL (≈ 284 µM)
E. coli ESS
  MIC: 8 µg/mL (≈ 17.8 µM)
E. coli NCTC 10418
  MIC: > 128 µg/mL
[3]
  MIC: 2 µg/mL (≈ 4.44 µM)
K. aerogenes A
  MIC: > 128 µg/mL
P. mirabilis 889
  MIC: > 128 µg/mL
[4]
  MIC: 2 µg/mL (≈ 4.44 µM)
[5]
  MIC: > 128 µg/mL
Sarcina lutea 8340
  MIC: 32 µg/mL (≈ 71 µM)
Staph. aureus Oxford [6]
  MIC: 8 µg/mL (≈ 17.8 µM)
Staph. aureus Russell
  MIC: 16 µg/mL (≈ 35.5 µM)
Staph. aureus W2827
  MIC: 16 µg/mL (≈ 35.5 µM)
Strep. agalactiae 2788-B
  MIC: 32 µg/mL (≈ 71 µM)
Strep. faecalis I
  MIC: > 128 µg/mL
[7]
  MIC: 16 µg/mL (≈ 35.5 µM)
Strep. spp. 64/848-C
  MIC: 32 µg/mL (≈ 71 µM)
S. typhimurium S18
  MIC: > 80 µg/mL
Past. haemolytica PA5
  MIC: 20 µg/mL (≈ 44.4 µM)
[8]
  MIC: > 80 µg/mL
[9]
  MIC: 2.5 µg/mL (≈ 5.55 µM)
[10]
  MIC: 5 µg/mL (≈ 11.1 µM)
Staph. aureus Oxford [11]
  MIC: 10 µg/mL (≈ 22.2 µM)
[12]
  MIC: 80 µg/mL (≈ 178 µM)
Strep. dysgalactiae SPD1
  MIC: 40 µg/mL (≈ 88.8 µM)
